Read-outs that look alike come from different tables or passages of the source. Marks after values point to notes of the source that are not given here.
Assays:
Caco-2 cell monolayer = assay: Caco-2 transepithelial transport assay of digested red wine; type: in vitro ADME, human
Experimental: Caco-2 cells were inoculated following the method of Hubatsch et al. […] Briefly, a 5% v/v of CO2 incubator at 37 °C was used to house the cells. […] Caco-2 cells were sub-cultured when they reached 80-90% of the adherent growth by treating them with a 0.05% v/v of trypsin-EDTA solution. The culture between passages 35 and 40 was used for the following experiment. Transport experiments were performed according to the method of Wu et al. with slight modifications. First, 1.0 × 10^5 Caco-2 cells were inoculated onto 12 mm transparent cell culture plates (Transwell). Media were carefully injected into the apical (0.5 mL) and basolateral (1.5 mL) sides of the Transwell plates. The cell culture medium had to be replaced every other day until the cells formed a monolayer. The integrity and transport ability of the Caco-2 cell monolayer were evaluated by measuring the trans-epithelial electrical resistance (TEER) with a MilliCell voltammeter (Millicell ERS-2, Merck Millipore, Billerica, MA, USA). […] When the cell activity exceeded 0.9, a transport experiment was conducted. The apical side was injected with a digested red wine sample (0.5 mL) and was thoroughly mixed with […] Balanced Salt Solution (HBSS) buffer solution. […] The cells were then cultured in a 37 °C, 5% CO2 incubator. Then, 0.25 mL samples were separately taken from the basolateral side of the monolayer. An equal volume of HBSS buffer was then added every half hour from the beginning of the culture until the end of the culture at 6 h. The collected samples were subsequently filtered and placed in the sample bottle for further HPLC analysis. This experiment was repeated several times to collect enough samples for the next antioxidant test. […] The Agilent 1100 series HPLC instrument was used; it was equipped with a degasser, quaternary pump solvent delivery, a DAD system, and a single quadrupole mass detector coupled with an electrospray ionization LC-MS interface. […] The column temperature was kept at 30 °C, the injection volume was 10 μL, and the flow rate was 0.3 mL/min. The eluents were water and formic acid in a 99:1 (v/v) (A) ratio and 100% acetonitrile (B). The gradient elution procedure was as follows: (1) 3% B solvent at 0 min, (2) 3 to 16% B solvent at 10 min, (3) 16 to 20% B solvent at 30 min, and (4) 20% B solvent maintained until the procedure was completed. The MS configuration was as follows: ESI, negative ion mode, nebulizer pressure of 30 psi, a dry gas flow rate of 10 mL/min, dry gas temperature of 350 °C, and a scan rate of 100~1200 m/z. PCs were determined according to their retention times, UV/VIS spectra, and high-resolution MS spectra, in addition to a comparison with the standards. […] If a standard was unavailable, a structurally related compound was used. Putative annotations were made using spectral features and literature information on the chromatographic properties and mass spectra records from the metabolome database. A standard curve was drawn using methanol solutions with different concentrations as the standards. […] PCs All of the samples were determined in triplicate.

[1] = PC content of red wine before and after in vitro simulated gastrointestinal digestion (HPLC); type: in vitro ADME
Experimental: The digestion procedure was carried out by adapting the method of Brodkorb et al. and Gómez et al.. […] One milliliter (50 units/mL) of porcine amylase was prepared in a 15 mM Na₃PO₄ buffer solution (pH adjusted to 6.8) containing 1.5 mM CaCl2, and it was added to the red wine solution. After 5 min, 4.5 mL of 0.12 M HCl was added to the mixture to adjust the pH to 2.4. One milliliter of porcine pepsin (0.02 mg/L) was dissolved in a 20 mM HCl solution. The mixture was then maintained at 37 °C for 120 min. The digestion mixture was then centrifuged at 8000× g for 15 min to obtain samples from the gastric digestion phase. […] The mixture was incubated at pH 6.5 at 37 °C for 3 h before being centrifuged. The extracts of the intestinal phase were the supernatants. The same operation was done three times, and each sample was stored in a refrigerator (−20 °C) immediately for further analysis.
The Pati method was adopted, with slight modifications, to measure the content of the PCs. The Agilent 1100 series HPLC instrument was used; it was equipped with a degasser, quaternary pump solvent delivery, a DAD system, and a single quadrupole mass detector coupled with an electrospray ionization LC–MS interface. Briefly, th samples were injected into a Zorbax SB C18 reversed-phase column (5 µm,150 × 2.1 mm, Agilent Technologies, Santa Clara, CA, USA) using an autosampler after filtering through 0.45 µm cellulose acetate syringe filters. The column temperature was kept at 30 °C, the injection volume was 10 µL, and the flow rate was 0.3 mL/min. The eluents were water and formic acid in a 99:1 (v/v) (A) ratio and 100% acetonitrile (B). […] The MS configuration was as follows: ESI, negative ion mode, nebulizer pressure of 30 psi, a dry gas flow rate of 10 mL/min, dry gas temperature of 350 °C, and a scan rate of 100~1200 m/z. PCs were determined according to their retention times, UV/VIS spectra, and high-resolution MS spectra, in addition to a comparison with the standards. […] Putative annotations were made using spectral features and literature information on the chromatographic properties and mass spectra records from the metabolome database. A standard curve was drawn using methanol solutions with different concentrations as the standards. The limits of detection and quantitation were calculated according to the signal-to-noise ratio (limit of detection: signal-to-noise ratio ≥ 3; limit of quantitation: signal-to-noise ratio ≥ 10). […] PCs All of the samples were determined in triplicate.

[2] = Cabernet red wine, digested sample, basolateral side of Caco-2 monolayer
[3] = Helanshan red wine, digested sample, basolateral side of Caco-2 monolayer
[4] = Tianzhu red wine, digested sample, basolateral side of Caco-2 monolayer
[5] = apical to basolateral, digested Cabernet red wine
[6] = apical to basolateral, digested Helanshan red wine
[7] = apical to basolateral, digested Tianzhu red wine
[8] = Cabernet red wine, after simulated gastrointestinal digestion
[9] = Helanshan red wine, after simulated gastrointestinal digestion
[10] = Tianzhu red wine, after simulated gastrointestinal digestion

Compound | PC Contents, Cabernet, Transmembrane (Caco-2 cell monolayer; [2]) | PC Contents, Helanshan, Transmembrane (Caco-2 cell monolayer; [3]) | PC Contents, Tianzhu, Transmembrane (Caco-2 cell monolayer; [4]) | Apparent Permeability Coefficients, Cabernet (Caco-2 cell monolayer; [5]) | Apparent Permeability Coefficients, Helanshan (Caco-2 cell monolayer; [6]) | Apparent Permeability Coefficients, Tianzhu (Caco-2 cell monolayer; [7]) | PC Contents, Cabernet, After Digestion [1, 8] | PC Contents, Helanshan, After Digestion [1, 9] | PC Contents, Tianzhu, After Digestion [1, 10] | Apparent Permeability Coefficients, Cabernet (Caco-2 cell monolayer; Caco-2) | Apparent Permeability Coefficients, Helanshan (Caco-2 cell monolayer; Caco-2) | Apparent Permeability Coefficients, Tianzhu (Caco-2 cell monolayer; Caco-2) | PC Contents, Cabernet, Transmembrane (Caco-2 cell monolayer; Caco-2) | PC Contents, Helanshan, Transmembrane (Caco-2 cell monolayer; Caco-2) | PC Contents, Tianzhu, Transmembrane (Caco-2 cell monolayer; Caco-2) | PC Contents, Cabernet, After Digestion [1] | PC Contents, Helanshan, After Digestion [1] | PC Contents, Tianzhu, After Digestion [1]
O=c1c(OC2O[C@H](CO)[C@@H](O)[C@H](O)[C@H]2O)c(-c2cc(O)c(O)c(O)c2)oc2cc(O)cc(O)c12 (stereo partly drawn) [Myricetin-3-glc] | 0.81 ± 0.04 ^a mg/L | 0.64 ± 0.02 ^a mg/L | 8.61 ± 0.43 ^a mg/L | 1.38 ± 0.17 ^a ×10^−6 cm/s | 1.41 ± 0.21 ^a ×10^−6 cm/s | 1.35 ± 0.19 ^a ×10^−6 cm/s | 36.91 ± 1.10 ^b mg/L | 28.45 ± 1.51 ^b mg/L | 43.22 ± 1.34 ^b mg/L |  |  |  |  |  |  |  |  | 
COc1cc(-c2[o+]c3cc(O)cc(O)c3cc2OC2OC(COC(C)=O)C(O)C(O)C2O)cc(O)c1O (stereo not drawn) [Petunidin-3-acglc] |  |  |  |  |  |  |  |  |  | 11.53 ± 2.01 ^a ×10^−6 cm/s | 11.78 ± 2.11 ^a ×10^−6 cm/s | 11.46 ± 2.05 ^a ×10^−6 cm/s | 0.19 ± 0.008 ^a mg/L | 0.18 ± 0.005 ^a mg/L | 0.23 ± 0.008 ^a mg/L | 1.05 ± 0.05 ^b mg/L | 0.98 ± 0.05 ^b mg/L | 1.17 ± 0.04 ^b mg/L
COc1cc(-c2[o+]c3cc(O)cc(O)c3cc2O[C@@H]2O[C@H](CO)[C@@H](O)[C@H](O)[C@H]2O)cc(O)c1O [Petunidin-3-glc] |  |  |  |  |  |  |  |  |  | 16.89 ± 2.96 ^a ×10^−6 cm/s | 17.56 ± 3.32 ^a ×10^−6 cm/s | 17.13 ± 3.01 ^a ×10^−6 cm/s | 1.56 ± 0.07 ^a mg/L | 1.40 ± 0.05 ^a mg/L | 1.06 ± 0.04 ^a mg/L | 5.79 ± 0.27 ^b mg/L | 4.98 ± 0.19 ^b mg/L | 5.33 ± 0.21 ^b mg/L
O=c1c(O[C@@H]2O[C@H](CO)[C@@H](O)[C@H](O)[C@H]2O)c(-c2ccc(O)c(O)c2)oc2cc(O)cc(O)c12 [Quercetin-3-glc] | 7.47 ± 0.23 ^a mg/L | 5.10 ± 0.28 ^a mg/L | 37.54 ± 1.95 ^a mg/L | 2.31 ± 0.27 ^a ×10^−6 cm/s | 2.19 ± 0.26 ^a ×10^−6 cm/s | 2.23 ± 0.22 ^a ×10^−6 cm/s | 202.22 ± 10.52 ^b mg/L | 145.43 ± 5.38 ^b mg/L | 188.45 ± 8.29 ^b mg/L |  |  |  |  |  |  |  |  | 
COc1cc(-c2oc3cc(O)cc(O)c3c(=O)c2O[C@@H]2O[C@H](CO)[C@@H](O)[C@H](O)[C@H]2O)cc(OC)c1O [Syringetin-3-glc] |  |  |  |  |  |  |  |  |  | 2.91 ± 0.21 ^a ×10^−6 cm/s | 2.81 ± 0.29 ^a ×10^−6 cm/s | 2.88 ± 0.23 ^a ×10^−6 cm/s | 1.23 ± 0.04 ^a mg/L | 0.91 ± 0.03 ^a mg/L | 6.01 ± 0.22 ^a mg/L | 26.34 ± 0.90 ^b mg/L | 20.17 ± 1.01 ^b mg/L | 30.19 ± 1.03 ^b mg/L
Procyanidin dimer |  |  |  |  |  |  |  |  |  | 6.41 ± 1.05 ^a ×10^−6 cm/s | 6.48 ± 0.98 ^a ×10^−6 cm/s | 6.54 ± 0.86 ^a ×10^−6 cm/s | 0.58 ± 0.03 ^a mg/L | 0.62 ± 0.02 ^a mg/L | 1.52 ± 0.08 ^a mg/L | 5.64 ± 0.26 ^b mg/L | 5.98 ± 0.27 ^b mg/L | 7.64 ± 0.32 ^b mg/L

From publication PMC9562916, “Investigation of the Phenolic Component Bioavailability Using the In Vitro Digestion/Caco-2 Cell Model, as well as the Antioxidant Activity in Chinese Red Wine” (Foods, 2022)
